EPA's ToxValDB 9.5 (doi:10.2903/j.efsa.2013.3213)

Test system: Rattus norvegicus
Conditions: chronic

CCOP(=O)=O.CCOP(=O)=O.CCOP(=O)=O.[Al+3] [Fosetyl aluminum]
NOAEL: 232 mg/kg-day
